For this assay, the species on record is Felis catus. Kind of assay: Compound was evaluated for positive inotropic activity in vitro on cat papillary muscle, expressed as the percent increase over base-line contractility at 1 x 10 e-4 M. In kind it is functional.

As to `CN(C)C1CCc2c(c3ccc4ncccc4c3n2C)C1` (stereo not given), the Increase turned out to be 69%. The same measure for `CN(C)C1CCc2[nH]c3c(ccc4ncccc43)c2C1` (stereo not given): 80%.

In turn, `CN(C)C1CCc2[nH]c3cc(O)ccc3c2C1` (stereo not given) returned an Increase of 50%. With `CN(C)C1CCc2[nH]c3c(ccc4[nH]ccc43)c2C1` (stereo not given) the figure was 15%; with `Nc1cc(-c2ccncc2)c[nH]c1=O` [INAMRINONE], 50%.

These data come from ChEMBL document CHEMBL1123339, “Ligand-receptor interactions via hydrogen-bond formation. Synthesis and pharmacological evaluation of pyrrolo and pyrido analogues of the cardiotonic agent 7-hydroxycyclindole” (1986).
